Measured values taken from paper PMC10600239, “Selective MCL-1 inhibitor ABBV-467 is efficacious in tumor models but is associated with cardiac troponin increases in patients” (Communications Medicine, 2023).
Read-outs that look alike come from different tables or passages of the source.

Test: Phase 1 first-in-human study (NCT04178902): pharmacokinetics
Format: in vivo
Settings: for AUC(0-inf) / AUC(0-t) / clearance / Cmax / Tmax / half-life: plasma; for Cmax: read-out: Cmax; for Tmax: read-out: Tmax (converted)
Text: Other eligibility criteria included: Eastern Cooperative Oncology Group performance status ≤2, measurable disease as defined by International Myeloma Working Group (IMWG) consensus criteria, an echocardiogram with an ejection fraction ≥50%, and adequate hematologic, hepatic, and renal function. […] Safety evaluations included, but were not limited to, adverse event (AE) monitoring, physical examinations, vital sign measurements, electrocardiogram (ECG), cardiac enzyme monitoring, and clinical laboratory testing (hematology and chemistry) as a measure of safety and tolerability for the entire study duration. Parameters used to determine PK included maximum observed plasma concentration (Cmax), terminal elimination half-life (t1/2), area under the plasma concentration-time curve (AUC) from time 0 to time of last measurable concentration (AUCt), AUC from time 0 to infinity (AUC0-∞), and clearance using non-compartmental methods. […] Preliminary efficacy endpoints were overall response rate (ORR), clinical benefit rate (CBR), and duration of response (DOR) as evaluated per adapted IMWG[36] criteria for MM and per adapted International Working Group (IWG)[37] and European Leukemia Net (ELN)[38] criteria for AML. […]

[1] = human, intravenous, 0.32 mg/kg, Cycle 1 day 1, dose level 0.32 mg/kg (only half of this dose given), N=2, individual values
[2] = human, intravenous, 0.53 mg/kg, Cycle 1 day 1, dose level 0.53 mg/kg (only half of this dose given), N=3
[3] = human, intravenous, 0.53 mg/kg, Cycle 1 day 15, 0.53 mg/kg, N=2, individual values

Cc1c(Cl)c2c(Cl)c(C)c1-c1c(-c3ccc(F)cc3)sc3ncnc(c13)O[C@@H](C(=O)O)Cc1cc(ccc1OCc1ccnc(-c3ccc(OC[C@H]4COCCO4)cc3)n1)OC[C@@H](CN1CCN(C)CC1)O2 [ABBV-467]
concentration at […] (human, in vivo, 0.08 mg/kg, Cycle 1 Day 1, DOSE_MGKG 0.08, cohort 1, PKTIME 24.5, read-out: CONC_NGML): 0 ng/mL
concentration at 0 h (human, in vivo, 0.265 mg/kg, Cycle 1 Day 1, DOSE_MGKG 0.265, cohort 3, PKTIME 0, read-out: CONC_NGML): 0 ng/mL
concentration at 20 min (human, in vivo, 0.265 mg/kg, Cycle 1 Day 1, DOSE_MGKG 0.265, cohort 3, PKTIME 0.333333, read-out: CONC_NGML): 904 ng/mL
concentration at 0.5 h (human, in vivo, 0.265 mg/kg, Cycle 1 Day 1, DOSE_MGKG 0.265, cohort 3, PKTIME 0.5, read-out: CONC_NGML): 564 ng/mL
concentration at 1.5 h (human, in vivo, 0.265 mg/kg, Cycle 1 Day 1, DOSE_MGKG 0.265, cohort 3, PKTIME 1.5, read-out: CONC_NGML): 14.9 ng/mL
concentration at […] (human, in vivo, 0.265 mg/kg, Cycle 1 Day 1, DOSE_MGKG 0.265, cohort 3, PKTIME 2.5, read-out: CONC_NGML): 8.88 ng/mL
concentration at […] (human, in vivo, 0.265 mg/kg, Cycle 1 Day 1, DOSE_MGKG 0.265, cohort 3, PKTIME 8.5, read-out: CONC_NGML): 0 ng/mL
concentration at […] (human, in vivo, 0.265 mg/kg, Cycle 1 Day 1, DOSE_MGKG 0.265, cohort 3, PKTIME 24.5, read-out: CONC_NGML): 0 ng/mL
concentration at 0 h (human, in vivo, 0.32 mg/kg, Cycle 1 Day 15, DOSE_MGKG 0.32, cohort 2, PKTIME 0, read-out: CONC_NGML): 0 ng/mL
concentration at 20 min (human, in vivo, 0.32 mg/kg, Cycle 1 Day 15, DOSE_MGKG 0.32, cohort 2, PKTIME 0.333333, read-out: CONC_NGML): 646 ng/mL
concentration at […] (human, in vivo, 0.32 mg/kg, Cycle 1 Day 15, DOSE_MGKG 0.32, cohort 2, PKTIME 8.5, read-out: CONC_NGML): 0 ng/mL
concentration at […] (human, in vivo, 0.32 mg/kg, Cycle 1 Day 15, DOSE_MGKG 0.32, cohort 2, PKTIME 24.5, read-out: CONC_NGML): 0 ng/mL
concentration at 10 min (human, in vivo, 0.53 mg/kg, Cycle 1 Day 15, DOSE_MGKG 0.53, cohort 3, PKTIME 0.166667, read-out: CONC_NGML): 731 ng/mL
concentration at 20 min (human, in vivo, 0.53 mg/kg, Cycle 1 Day 15, DOSE_MGKG 0.53, cohort 3, PKTIME 0.333333, read-out: CONC_NGML): 1370 ng/mL
concentration at 0.5 h (human, in vivo, 0.53 mg/kg, Cycle 1 Day 15, DOSE_MGKG 0.53, cohort 3, PKTIME 0.5, read-out: CONC_NGML): 1860 ng/mL
concentration at 1.5 h (human, in vivo, 0.53 mg/kg, Cycle 1 Day 15, DOSE_MGKG 0.53, cohort 3, PKTIME 1.5, read-out: CONC_NGML): 87.9 ng/mL
concentration at […] (human, in vivo, 0.53 mg/kg, Cycle 1 Day 15, DOSE_MGKG 0.53, cohort 3, PKTIME 2.5, read-out: CONC_NGML): 27.3 ng/mL
concentration at 4.5 h (human, in vivo, 0.53 mg/kg, Cycle 1 Day 15, DOSE_MGKG 0.53, cohort 3, PKTIME 4.5, read-out: CONC_NGML): 11.3 ng/mL
concentration at […] (human, in vivo, 0.53 mg/kg, Cycle 1 Day 15, DOSE_MGKG 0.53, cohort 3, PKTIME 8.5, read-out: CONC_NGML): 0 ng/mL
concentration at […] (human, in vivo, 0.53 mg/kg, Cycle 1 Day 15, DOSE_MGKG 0.53, cohort 3, PKTIME 24.5, read-out: CONC_NGML): 0 ng/mL
AUC(0-inf) [1]: 167 ng·h/mL
AUC(0-t) [1]: 159 ng·h/mL
clearance [1]: 15.9 mL/min/kg
Cmax [1]: 474 ng/mL
Tmax [1]: 20 min
half-life (human, intravenous, 0.32 mg/kg, Cycle 1 day 1, dose level 0.32 mg/kg (only half of this dose given), N=2, individual values, read-out: t1/2): 50.8 min
AUC(0-inf) [2]: 435 ng·h/mL
AUC(0-t) [2]: 428 ng·h/mL
clearance [2]: 10.2 mL/min/kg
half-life (human, intravenous, 0.53 mg/kg, Cycle 1 day 1, dose level 0.53 mg/kg (only half of this dose given), N=3, harmonic mean (pseudo SD), read-out: t1/2): 55.5 min
Tmax (human, intravenous, 0.53 mg/kg, Cycle 1 day 1, dose level 0.53 mg/kg (only half of this dose given), N=3, median): 30 min
AUC(0-inf) [3]: 933 ng·h/mL
AUC(0-t) [3]: 921 ng·h/mL
clearance [3]: 9.47 mL/min/kg
Cmax [3]: 1510 ng/mL
Tmax [3]: 30 min
half-life (human, intravenous, 0.53 mg/kg, Cycle 1 day 15, 0.53 mg/kg, N=2, individual values, read-out: t1/2): 63.3 min
half-life (human, intravenous, […], Cycle 1 day 1, dose level […] (only half of this dose given), N=3, harmonic mean (pseudo SD), read-out: t1/2): 16.1 min
Tmax (human, intravenous, […], Cycle 1 day 1, dose level […] (only half of this dose given), N=3, median): 30 min
clearance (human, intravenous, […], Cycle 1 day 15, […], N=3): 10.4 mL/min/kg
Tmax (human, intravenous, […], Cycle 1 day 15, […], N=3, median): 30 min
half-life (human, iv, patients, 30-minute IV infusion, 0.08–0.53 mg/kg, read-out: average half-life): < 60 min
time after completion of infusion at which circulating plasma concentrations were eliminated (patients, 30-minute IV infusion): 4 h
